US9549932B2, “2-(morpholin-4-yl)-1,7-naphthyridines” (BAYER PHARMA AKTIENGESELLSCHAFT, priority 2014, dated 2017)

target: full-length human ATR protein (Homo sapiens (Human), UniProt Q13535); assay: Binding assay ATR (TR-FRET tracer displacement); details: tracer A, TR-FRET; read-out: ATR binding (tracer A) IC50
Procedure, shortened: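 Full-length human GST-ATR co-purified with ATRIP, pre-complexed 30 min at 22 °C with anti-GST-Tb antibody, then pre-bound with compound 10 min. Tracer A or B added (2 µl of 100 nM solution), 30 min at 22 °C.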

Sequence of full-length human ATR protein (Q13535 other isoform, or with tags, fused parts or gaps): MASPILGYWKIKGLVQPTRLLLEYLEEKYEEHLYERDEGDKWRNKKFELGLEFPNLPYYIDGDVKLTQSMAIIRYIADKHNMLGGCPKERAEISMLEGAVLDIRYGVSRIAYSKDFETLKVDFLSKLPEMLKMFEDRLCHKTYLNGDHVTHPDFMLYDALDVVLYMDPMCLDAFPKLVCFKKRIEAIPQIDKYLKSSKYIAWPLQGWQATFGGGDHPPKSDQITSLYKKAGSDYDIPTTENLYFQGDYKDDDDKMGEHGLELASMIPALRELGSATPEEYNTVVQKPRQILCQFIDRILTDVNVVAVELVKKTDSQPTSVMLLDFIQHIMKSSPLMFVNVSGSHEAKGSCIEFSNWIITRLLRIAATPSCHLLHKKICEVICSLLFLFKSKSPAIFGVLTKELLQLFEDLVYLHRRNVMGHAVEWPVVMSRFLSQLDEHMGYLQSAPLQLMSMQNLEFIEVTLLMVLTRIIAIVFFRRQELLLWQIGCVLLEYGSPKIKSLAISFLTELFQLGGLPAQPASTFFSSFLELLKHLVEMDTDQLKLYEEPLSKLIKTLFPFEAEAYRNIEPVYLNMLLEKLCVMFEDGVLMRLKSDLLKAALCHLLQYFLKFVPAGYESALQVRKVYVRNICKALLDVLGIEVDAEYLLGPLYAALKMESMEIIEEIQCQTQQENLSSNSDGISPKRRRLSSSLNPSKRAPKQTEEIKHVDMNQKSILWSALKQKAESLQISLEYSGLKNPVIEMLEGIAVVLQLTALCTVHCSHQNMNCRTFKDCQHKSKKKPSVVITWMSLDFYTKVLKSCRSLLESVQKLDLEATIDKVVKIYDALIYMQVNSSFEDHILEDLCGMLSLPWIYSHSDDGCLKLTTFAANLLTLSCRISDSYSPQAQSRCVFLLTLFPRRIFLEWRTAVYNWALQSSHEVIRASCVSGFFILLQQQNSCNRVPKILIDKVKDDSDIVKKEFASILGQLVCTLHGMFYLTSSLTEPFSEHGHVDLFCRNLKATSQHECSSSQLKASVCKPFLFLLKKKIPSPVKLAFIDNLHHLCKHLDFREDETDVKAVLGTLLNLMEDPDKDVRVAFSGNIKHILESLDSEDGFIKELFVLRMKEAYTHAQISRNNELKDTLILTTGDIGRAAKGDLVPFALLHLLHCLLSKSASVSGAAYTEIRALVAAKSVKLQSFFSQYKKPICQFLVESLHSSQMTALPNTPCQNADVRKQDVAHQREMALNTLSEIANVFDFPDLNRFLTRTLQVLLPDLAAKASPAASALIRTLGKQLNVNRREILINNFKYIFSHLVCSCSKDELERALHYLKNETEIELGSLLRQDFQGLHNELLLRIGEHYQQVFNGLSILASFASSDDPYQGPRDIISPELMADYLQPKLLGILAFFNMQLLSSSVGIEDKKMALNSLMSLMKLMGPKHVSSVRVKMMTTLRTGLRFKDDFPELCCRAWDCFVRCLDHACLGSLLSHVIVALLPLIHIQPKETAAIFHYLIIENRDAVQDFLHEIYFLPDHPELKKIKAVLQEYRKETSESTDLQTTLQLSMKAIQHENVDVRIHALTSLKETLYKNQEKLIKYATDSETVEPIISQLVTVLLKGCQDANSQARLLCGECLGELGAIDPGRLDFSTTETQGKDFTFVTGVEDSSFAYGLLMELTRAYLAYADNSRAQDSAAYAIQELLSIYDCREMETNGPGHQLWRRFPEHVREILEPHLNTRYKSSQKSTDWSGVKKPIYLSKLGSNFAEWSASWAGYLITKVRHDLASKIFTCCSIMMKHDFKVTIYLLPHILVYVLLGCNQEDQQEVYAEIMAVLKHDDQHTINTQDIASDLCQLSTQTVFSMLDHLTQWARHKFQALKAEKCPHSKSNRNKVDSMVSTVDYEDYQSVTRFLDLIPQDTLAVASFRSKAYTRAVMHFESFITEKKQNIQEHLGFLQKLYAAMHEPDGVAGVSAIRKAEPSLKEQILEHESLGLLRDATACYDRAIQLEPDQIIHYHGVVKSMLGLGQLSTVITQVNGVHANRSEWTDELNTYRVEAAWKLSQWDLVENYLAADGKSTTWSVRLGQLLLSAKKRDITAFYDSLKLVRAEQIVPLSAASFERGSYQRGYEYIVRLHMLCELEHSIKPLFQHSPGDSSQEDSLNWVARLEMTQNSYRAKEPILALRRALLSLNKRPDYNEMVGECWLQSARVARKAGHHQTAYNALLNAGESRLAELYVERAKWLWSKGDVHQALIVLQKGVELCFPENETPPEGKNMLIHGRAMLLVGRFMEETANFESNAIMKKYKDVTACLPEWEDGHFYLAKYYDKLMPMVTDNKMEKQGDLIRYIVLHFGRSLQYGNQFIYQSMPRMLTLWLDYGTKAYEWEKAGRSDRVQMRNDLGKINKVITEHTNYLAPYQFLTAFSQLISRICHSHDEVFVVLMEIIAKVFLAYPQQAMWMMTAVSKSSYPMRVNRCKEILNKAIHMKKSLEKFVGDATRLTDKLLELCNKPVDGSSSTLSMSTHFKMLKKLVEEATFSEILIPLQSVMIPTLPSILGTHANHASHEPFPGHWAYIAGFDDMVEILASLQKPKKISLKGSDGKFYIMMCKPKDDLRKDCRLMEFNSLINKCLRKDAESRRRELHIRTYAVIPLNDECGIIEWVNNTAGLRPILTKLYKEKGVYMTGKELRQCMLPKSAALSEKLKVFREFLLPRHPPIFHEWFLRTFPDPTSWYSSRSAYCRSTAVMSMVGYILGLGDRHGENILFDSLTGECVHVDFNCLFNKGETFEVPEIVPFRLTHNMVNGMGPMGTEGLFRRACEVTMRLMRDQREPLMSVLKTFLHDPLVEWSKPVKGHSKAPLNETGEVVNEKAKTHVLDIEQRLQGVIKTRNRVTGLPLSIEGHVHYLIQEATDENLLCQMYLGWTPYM
Sequence of full-length human ATR protein (Q8WXE1 other isoform, or with tags, fused parts or gaps partner): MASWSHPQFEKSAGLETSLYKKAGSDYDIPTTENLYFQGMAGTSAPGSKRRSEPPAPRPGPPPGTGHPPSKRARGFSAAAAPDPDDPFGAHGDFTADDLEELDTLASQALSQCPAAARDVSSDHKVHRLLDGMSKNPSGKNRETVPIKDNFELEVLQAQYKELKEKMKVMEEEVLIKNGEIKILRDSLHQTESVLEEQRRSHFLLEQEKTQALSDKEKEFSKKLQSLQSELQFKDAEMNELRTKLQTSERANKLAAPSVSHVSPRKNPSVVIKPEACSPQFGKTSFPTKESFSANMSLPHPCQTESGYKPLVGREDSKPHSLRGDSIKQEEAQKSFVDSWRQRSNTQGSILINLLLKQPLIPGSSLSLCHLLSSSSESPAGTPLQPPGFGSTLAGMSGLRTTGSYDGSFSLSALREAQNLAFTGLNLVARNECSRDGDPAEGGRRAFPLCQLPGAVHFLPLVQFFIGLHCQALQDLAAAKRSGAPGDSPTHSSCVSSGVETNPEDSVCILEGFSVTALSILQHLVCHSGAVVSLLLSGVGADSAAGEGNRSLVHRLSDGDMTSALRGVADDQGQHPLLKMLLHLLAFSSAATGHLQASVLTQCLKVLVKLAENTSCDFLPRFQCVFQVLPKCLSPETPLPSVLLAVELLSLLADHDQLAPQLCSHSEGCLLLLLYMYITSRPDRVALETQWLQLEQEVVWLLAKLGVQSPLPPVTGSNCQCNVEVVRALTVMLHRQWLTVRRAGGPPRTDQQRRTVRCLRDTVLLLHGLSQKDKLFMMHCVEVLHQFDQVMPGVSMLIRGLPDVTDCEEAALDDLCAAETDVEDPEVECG

SMILES	IC50 [µM]
COc1ccccc1-c1cc(N2CCOCC2)nc2c(-c3ccn[nH]3)nccc12 [Example 300, 4-(2-methoxyphenyl)-2-(morpholin-4-yl)-8-(1H-pyrazol-5-yl)-1,7-naphthyridine]	0.181
Cn1nccc1-c1cc(N2CCOCC2)nc2c(-c3ccn[nH]3)nccc12 [Example 348, 4-(1-methyl-1H-pyrazol-5-yl)-2-(morpholin-4-yl)-8-(1H-pyrazol-5-yl)-1,7-naphthyridine]	0.0553
CNC(=O)c1ccc(-c2cc(N3CCOCC3)nc3c(-c4ccn[nH]4)nccc23)cn1 [Example 398, N-methyl-5-[2-(morpholin-4-yl)-8-(1H-pyrazol-5-yl)-1,7-naphthyridin-4-yl]pyridine-2-carboxamide]	0.12
COc1cc(N2CCOCC2)nc2c(-c3cc[nH]n3)nccc12 [Example 44, 4-methoxy-2-(morpholin-4-yl)-8-(1H-pyrazol-3-yl)-[1,7]naphthyridine]	0.543
CNC(=O)c1cccc(-c2cc(N3CCOCC3)nc3c(-c4ccn[nH]4)nccc23)c1 [Example 297, N-methyl-3-[2-(morpholin-4-yl)-8-(1H-pyrazol-5-yl)-1,7-naphthyridin-4-yl]benzamide]	0.119
C[C@@H]1COCCN1c1cc(OCCCNC(=O)OC(C)(C)C)c2ccnc(-c3ccn[nH]3)c2n1 [Example 54, Tert-butyl [3-({2-[(3R)-3-methylmorpholin-4-yl]-8-(1H-pyrazol-5-yl)-1,7-naphthyridin-4-yl}oxy)propyl]carbamate]	0.288
CC1CCN(c2cc(N3CCOC[C@H]3C)nc3c(-c4ccn[nH]4)nccc23)CC1 [Example 109, 2-[(3R)-3-methylmorpholin-4-yl]-4-(4-methylpiperidin-1-yl)-8-(1H-pyrazol-5-yl)-1,7-naphthyridine]	0.00914
COc1ncc(-c2cc(N3CCOC[C@H]3C)nc3c(-c4ccn[nH]4)nccc23)cc1C [Example 96, 4-(6-methoxy-5-methylpyridin-3-yl)-2-[(3R)-3-methylmorpholin-4-yl]-8-(1H-pyrazol-5-yl)-1,7-naphthyridine]	0.0127
COc1ccc(-c2cc(N3CCOCC3)nc3c(-c4ccn[nH]4)nccc23)cc1 [Example 309, 4-(4-methoxyphenyl)-2-(morpholin-4-yl)-8-(1H-pyrazol-5-yl)-1,7-naphthyridine]	0.146
C1=C(c2cc(N3CCOCC3)nc3c(-c4cc[nH]n4)nccc23)CCOC1 [Example 4, 4-(3,6-dihydro-2H-pyran-4-yl)-2-(morpholin-4-yl)-8-(1H-pyrazol-3-yl)-[1,7]naphthyridine]	0.0617
CC(C)(C)n1cc(-c2cc(N3CCOCC3)nc3c(-c4ccn[nH]4)nccc23)cn1 [Example 407, 4-(1-tert-butyl-1H-pyrazol-4-yl)-2-(morpholin-4-yl)-8-(1H-pyrazol-5-yl)-1,7-naphthyridine]	0.309
C[C@@H]1COCCN1c1cc(-c2cnn(C)c2)c2ccnc(-c3ccn[nH]3)c2n1 [Example 248, 2-[(3R)-3-methylmorpholin-4-yl]-4-(1-methyl-1H-pyrazol-4-yl)-8-(1H-pyrazol-5-yl)-1,7-naphthyridine]	0.0241
CC(C)n1ccc(-c2cc(N3CCOC[C@H]3C)nc3c(-c4ccn[nH]4)nccc23)n1 [Example 263, 2-[(3R)-3-methylmorpholin-4-yl]-4-[1-(propan-2-yl)-1H-pyrazol-3-yl]-8-(1H-pyrazol-5-yl)-1,7-naphthyridine]	0.0193
CS(=O)(=O)C1(c2cc(N3CCOCC3)nc3c(-c4ccn[nH]4)nccc23)CC1 [Example 39, 4-(1-methanesulphonylcyclopropyl)-2-(morpholin-4-yl)-8-(2H-pyrazol-3-yl)-[1,7]naphthyridine]	0.0601
Cc1ccsc1-c1cc(N2CCOC[C@H]2C)nc2c(-c3ccn[nH]3)nccc12 [Example 99, 2-[(3R)-3-methylmorpholin-4-yl]-4-(3-methyl-2-thienyl)-8-(1H-pyrazol-5-yl)-1,7-naphthyridine]	0.00638
COP(=O)(OC)c1ccc(-c2cc(N3CCOCC3)nc3c(-c4ccn[nH]4)nccc23)cc1 [Example 9, Dimethyl {4-[2-(morpholin-4-yl)-8-(1H-pyrazol-5-yl)-1,7-naphthyridin-4-yl]phenyl}phosphonate]	0.12
CS(=O)(=O)N1CCN(c2cc(N3CCOCC3)nc3c(-c4ccn[nH]4)nccc23)CC1 [Example 434, 4-[4-(methylsulfonyl)piperazin-1-yl]-2-(morpholin-4-yl)-8-(1H-pyrazol-5-yl)-1,7-naphthyridine]	0.0318
O=C(c1ccc(-c2cc(N3CCOCC3)nc3c(-c4ccn[nH]4)nccc23)cc1)N1CCCCC1 [Example 289, {4-[2-(morpholin-4-yl)-8-(1H-pyrazol-5-yl)-1,7-naphthyridin-4-yl]phenyl}(piperidin-1-yl)methanone]	2.99
c1cc(-c2nccc3c(N4C5CCC4COC5)cc(N4CCOCC4)nc23)[nH]n1 [Example 174, 2-(morpholin-4-yl)-4-(3-oxa-8-azabicyclo[3.2.1]oct-8-yl)-8-(1H-pyrazol-5-yl)-1,7-naphthyridine]	0.213

SMILES	IC50 [µM]
Cc1nc(S(C)(=N)=O)ccc1-c1cc(N2CCOC[C@H]2C)nc2c(-c3ccn[nH]3)nccc12 (stereo partly drawn) [Example 116, 4-[2-methyl-6-(S-methylsulfonimidoyl)pyridin-3-yl]-2-[(3R)-3-methylmorpholin-4-yl]-8-(1H-pyrazol-5-yl)-1,7-naphthyridine]	0.00951
COC1(C)CN(c2cc(N3CCOCC3)nc3c(-c4ccn[nH]4)nccc23)C1 [Example 184, 4-(3-methoxy-3-methylazetidin-1-yl)-2-(morpholin-4-yl)-8-(1H-pyrazol-5-yl)-1,7-naphthyridine]	0.763
CSCc1cc(N2CCOC[C@H]2C)nc2c(-c3ccn[nH]3)nccc12 [Example 186, 2-[(3R)-3-methylmorpholin-4-yl]-4-[(methylsulfanyl)methyl]-8-(1H-pyrazol-5-yl)-1,7-naphthyridine]	0.0674
C[C@@H]1COCCN1c1cc(-c2cccc(S(C)(=N)=O)c2)c2ccnc(-c3ccn[nH]3)c2n1 (stereo partly drawn) [Example 31, 3-[2-((R)-3-methylmorpholin-4-yl)-8-(2H-pyrazol-3-yl)-[1,7]naphthyridine-4-yl]phenyl-S-methylsulphoximide]	0.0866
CC(C)S(=O)(=O)c1ccc(-c2cc(N3CCOC[C@H]3C)nc3c(-c4ccn[nH]4)nccc23)cc1 [Example 151, 4-[4-(isopropylsulfonyl)phenyl]-2-[(3R)-3-methylmorpholin-4-yl]-8-(1H-pyrazol-5-yl)-1,7-naphthyridine]	0.0512
CC(=O)Nc1cccc(-c2cc(N3CCOCC3)nc3c(-c4ccn[nH]4)nccc23)c1 [Example 305, N-{3-[2-(morpholin-4-yl)-8-(1H-pyrazol-5-yl)-1,7-naphthyridin-4-yl]phenyl}acetamide]	0.133
Cc1noc(C)c1-c1cc(N2CCOC[C@H]2C)nc2c(-c3ccn[nH]3)nccc12 [Example 105, 4-(3,5-dimethyl-1,2-oxazol-4-yl)-2-[(3R)-3-methylmorpholin-4-yl]-8-(1H-pyrazol-5-yl)-1,7-naphthyridine]	0.00867
C[C@@H]1COCCN1c1cc(-c2cnn(C(C)(C)C)c2)c2ccnc(-c3ccn[nH]3)c2n1 [Example 257, 4-(1-tert-butyl-1H-pyrazol-4-yl)-2-[(3R)-3-methylmorpholin-4-yl]-8-(1H-pyrazol-5-yl)-1,7-naphthyridine]	0.0588
c1ccc2ncc(-c3cc(N4CCOCC4)nc4c(-c5ccn[nH]5)nccc34)cc2c1 [Example 354, 2-(morpholin-4-yl)-8-(1H-pyrazol-5-yl)-4-(quinolin-3-yl)-1,7-naphthyridine]	0.0847
OCc1ccc(-c2cc(N3CCOCC3)nc3c(-c4ccn[nH]4)nccc23)s1 [Example 358, {5-[2-(morpholin-4-yl)-8-(1H-pyrazol-5-yl)-1,7-naphthyridin-4-yl]thiophen-2-yl}methanol]	0.0464
CCC(O)(CC)c1cc(N2CCOC[C@H]2C)nc2c(-c3ccn[nH]3)nccc12 [Example 129, 3-{2-[(3R)-3-methylmorpholin-4-yl]-8-(1H-pyrazol-5-yl)-1,7-naphthyridin-4-yl}pentan-3-ol]	0.0353
C[C@@H]1COCCN1c1cc(N=S(C)(=O)c2ccc(Br)cc2)c2ccnc(-c3ccn[nH]3)c2n1 (some centres unmarked) [Example 277]	0.0782
CC(C)Nc1cc(N2CCOCC2)nc2c(-c3ccn[nH]3)nccc12 [Example 208, 2-(morpholin-4-yl)-N-(propan-2-yl)-8-(1H-pyrazol-5-yl)-1,7-naphthyridin-4-amine]	1.16
C[C@@H]1COCCN1c1cc(C2CC[S+]([O-])CC2)c2ccnc(-c3ccn[nH]3)c2n1 (stereo partly drawn) [Example 203, 2-[(3R)-3-methylmorpholin-4-yl]-4-[1-oxidotetrahydro-2H-thiopyran-4-yl]-8-(1H-pyrazol-5-yl)-1,7-naphthyridine]	0.0113
C[C@@H]1COCCN1c1cc(-c2cnc(S(C)(=O)=O)c(F)c2)c2ccnc(-c3ccn[nH]3)c2n1 [Example 147, 4-[5-fluoro-6-(methylsulfonyl)pyridin-3-yl]-2-[(3R)-3-methylmorpholin-4-yl]-8-(1H-pyrazol-5-yl)-1,7-naphthyridine]	0.0454
c1cc(-c2nccc3c(-c4ccc(N5CCOCC5)nc4)cc(N4CCOCC4)nc23)[nH]n1 [Example 369, 2-(morpholin-4-yl)-4-[6-(morpholin-4-yl)pyridin-3-yl]-8-(1H-pyrazol-5-yl)-1,7-naphthyridine]	0.115
Cc1cc(-c2cc(N3CCOC[C@H]3C)nc3c(-c4ccn[nH]4)nccc23)cnc1C [Example 232, 4-(5,6-dimethylpyridin-3-yl)-2-[(3R)-3-methylmorpholin-4-yl]-8-(1H-pyrazol-5-yl)-1,7-naphthyridine]	0.0391
Fc1ccc(-c2cc(N3CCOCC3)nc3c(-c4ccn[nH]4)nccc23)cc1 [Example 314, 4-(4-fluorophenyl)-2-(morpholin-4-yl)-8-(1H-pyrazol-5-yl)-1,7-naphthyridine]	0.0679

same assay, conditions: tracer B, TR-FRET; read-out: ATR binding (tracer B) IC50

SMILES	IC50 [µM]
COc1cc(N2CCOCC2)nc2c(-c3cc[nH]n3)nccc12 [Example 44, 4-methoxy-2-(morpholin-4-yl)-8-(1H-pyrazol-3-yl)-[1,7]naphthyridine]	0.327
C[C@@H]1COCCN1c1cc(OCCCNC(=O)OC(C)(C)C)c2ccnc(-c3ccn[nH]3)c2n1 [Example 54, Tert-butyl [3-({2-[(3R)-3-methylmorpholin-4-yl]-8-(1H-pyrazol-5-yl)-1,7-naphthyridin-4-yl}oxy)propyl]carbamate]	0.129
C1=C(c2cc(N3CCOCC3)nc3c(-c4cc[nH]n4)nccc23)CCOC1 [Example 4, 4-(3,6-dihydro-2H-pyran-4-yl)-2-(morpholin-4-yl)-8-(1H-pyrazol-3-yl)-[1,7]naphthyridine]	0.0435
CS(=O)(=O)C1(c2cc(N3CCOCC3)nc3c(-c4ccn[nH]4)nccc23)CC1 [Example 39, 4-(1-methanesulphonylcyclopropyl)-2-(morpholin-4-yl)-8-(2H-pyrazol-3-yl)-[1,7]naphthyridine]	0.0353
COP(=O)(OC)c1ccc(-c2cc(N3CCOCC3)nc3c(-c4ccn[nH]4)nccc23)cc1 [Example 9, Dimethyl {4-[2-(morpholin-4-yl)-8-(1H-pyrazol-5-yl)-1,7-naphthyridin-4-yl]phenyl}phosphonate]	0.127
C[C@@H]1COCCN1c1cc(-c2cccc(S(C)(=N)=O)c2)c2ccnc(-c3ccn[nH]3)c2n1 (stereo partly drawn) [Example 31, 3-[2-((R)-3-methylmorpholin-4-yl)-8-(2H-pyrazol-3-yl)-[1,7]naphthyridine-4-yl]phenyl-S-methylsulphoximide]	0.0451
CC(C)S(=O)(=O)c1ccc(-c2cc(N3CCOC[C@H]3C)nc3c(-c4ccn[nH]4)nccc23)cc1 [Example 151, 4-[4-(isopropylsulfonyl)phenyl]-2-[(3R)-3-methylmorpholin-4-yl]-8-(1H-pyrazol-5-yl)-1,7-naphthyridine]	0.0232
